Legend:
[1] = test system: Septoria lycopersici/Corynespora cassicola (CORYCA); experiment: Septoria lycopersici/Corynespora cassicola (CORYCA) (leaf spot of tomato) in vitro test, radial growth on potato dextrose agar; format: cell-based; conditions: 168 h, 300 ppm in potato dextrose agar, 25° C., 70% relative humidity, seven days, read-out: control compared to the untreated check (radial growth)
Colletotrichum capsici = Colletotrichum capsici (anthracnose) in vitro test, radial growth on potato dextrose agar; format: cell-based; conditions: Colletotrichum truncatum, 168 h; 300 ppm in potato dextrose agar; 25° C., 60% relative humidity, seven days; read-out: control compared to the untreated check (radial growth)
Pyricularia oryzae = experiment: microbe, parasite or virus in culture; format: cell-based; conditions: 168 h, read-out: control compared to the untreated check (radial growth)
Rhizoctonia solani = Rhizoctonia solani (rice sheath blight/potato black scurf) in vitro test, radial growth on potato dextrose agar; format: cell-based; conditions: 168 h, 300 ppm in potato dextrose agar, 25° C., 60% relative humidity, seven days, read-out: control compared to the untreated check (radial growth)
Alternaria solani = Alternaria solani (early blight of tomato/potato) in vitro test, radial growth on potato dextrose agar; format: cell-based; conditions: 168 h, 300 ppm in potato dextrose agar, 25° C., 60% relative humidity, seven days, read-out: control compared to the untreated check (radial growth)
Fusarium culmorum = Fusarium culmorum (foot rot of cereals) in vitro test, radial growth on potato dextrose agar; format: cell-based; conditions: 168 h, 300 ppm in potato dextrose agar, 25° C., 60% relative humidity, seven days, read-out: control compared to the untreated check (radial growth)
Procedure: Compounds were dissolved in 0.3% dimethyl sulfoxide and then added to potato dextrose agar medium just prior to dispensing it into petri dishes. 5 mL medium with the compound in the desired concentration was dispensed into 60 mm sterile petri-plates. After solidification each plate was seeded with a 5 mm size mycelial disc taken from the periphery of an actively growing virulent culture plate. Plates were incubated in growth chambers at 25° C. temperature and 60% relative humidity for seven days and then the radial growth was measured and compared to that of the untreated control.

Botrytis cinerea = Botrytis cinerea (gray mold) in vitro test, radial growth on potato dextrose agar; format: cell-based; conditions: 168 h, 300 ppm in potato dextrose agar, 22° C., 90% relative humidity, seven days, read-out: control compared to the untreated check (radial growth)
Phakopsora pachyrhizi = Phakopsora pachyrhizi test in soybean, preventive, in vivo on plants; conditions: in Glycine max, read-out: Efficacy (% control), disease severity compared to the untreated check

CCN(C)C=Nc1cc(C)cc(Nc2cccc(F)c2)c1Cl [Compound 35, N′-(2-chloro-3-((3-fluorophenyl)amino)-5-methylphenyl)-N-ethyl-N-methylformimidamide]
≥ 70%: inhibition of growth at 300 ppm [1] | inhibition of growth at 300 ppm (Colletotrichum capsici) | inhibition of growth at 300 ppm (Pyricularia oryzae) | inhibition of growth at 300 ppm (Rhizoctonia solani) | inhibition of growth at 300 ppm (Alternaria solani) | inhibition of growth at 300 ppm (Fusarium culmorum) | inhibition of growth at 300 ppm (Botrytis cinerea)

CCN(C)C=Nc1cc(C)cc(Cc2ccc(C)cc2)c1C [Compound 2, N′-(2,5-dimethyl-3-(4-methylbenzyl)phenyl)-N-ethyl-N-methylformimidamide]
≥ 70%: inhibition of growth at 300 ppm [1] | inhibition of growth at 300 ppm (Colletotrichum capsici) | inhibition of growth at 300 ppm (Pyricularia oryzae) | inhibition of growth at 300 ppm (Rhizoctonia solani) | inhibition of growth at 300 ppm (Alternaria solani) | inhibition of growth at 300 ppm (Fusarium culmorum) | inhibition of growth at 300 ppm (Botrytis cinerea)

CCN(C)C=Nc1cc(C)cc(Cc2ccccc2Cl)c1Cl [Compound 13, N′-(2-chloro-3-(2-chlorobenzyl)-5-methylphenyl)-N-ethyl-N-methylformimidamide]
≥ 70%: inhibition of growth at 300 ppm [1] | inhibition of growth at 300 ppm (Colletotrichum capsici) | inhibition of growth at 300 ppm (Pyricularia oryzae) | inhibition of growth at 300 ppm (Rhizoctonia solani) | inhibition of growth at 300 ppm (Alternaria solani) | inhibition of growth at 300 ppm (Fusarium culmorum) | inhibition of growth at 300 ppm (Botrytis cinerea)

CCN(C)C=Nc1cc(Cl)cc(Cc2ccc(C#N)cc2)c1C [Compound 246, N′-(5-chloro-3-(4-cyanobenzyl)-2-methylphenyl)-N-ethyl-N-methylformimidamide]
≥ 70%: inhibition of growth at 300 ppm (Colletotrichum capsici) | inhibition of growth at 300 ppm (Pyricularia oryzae) | inhibition of growth at 300 ppm (Rhizoctonia solani) | inhibition of growth at 300 ppm (Alternaria solani) | inhibition of growth at 300 ppm (Fusarium culmorum) | inhibition of growth at 300 ppm (Botrytis cinerea)

CCN(C)C=Nc1cc(C)cc(Nc2ccc(C(C)(C)C)cc2)c1Cl [Compound 25, N′-(3-((4-(tert-butyl)phenyl)amino)-2-chloro-5-methylphenyl)-N-ethyl-N-methylformimidamide]
≥ 70%: inhibition of growth at 300 ppm [1] | inhibition of growth at 300 ppm (Colletotrichum capsici) | inhibition of growth at 300 ppm (Pyricularia oryzae) | inhibition of growth at 300 ppm (Rhizoctonia solani) | inhibition of growth at 300 ppm (Alternaria solani) | inhibition of growth at 300 ppm (Fusarium culmorum) | inhibition of growth at 300 ppm (Botrytis cinerea)

CCN(C)C=Nc1cc(C)cc(Nc2ccc(SC(F)(F)F)cc2)c1Cl [Compound 26, N′-(2-chloro-5-methyl-3-((4-((trifluoromethyl)thio)phenyl)amino)phenyl)-N-ethyl-N-methylformimidamide]
≥ 70%: inhibition of growth at 300 ppm (Colletotrichum capsici) | pest or weed control at 500 ppm (Phakopsora pachyrhizi) | inhibition of growth at 300 ppm (Rhizoctonia solani) | inhibition of growth at 300 ppm (Alternaria solani) | inhibition of growth at 300 ppm (Fusarium culmorum) | inhibition of growth at 300 ppm (Botrytis cinerea)

CCN(C)C=Nc1cc(C)cc(Cc2cccc(F)c2)c1C [Compound 5, N-ethyl-N′-(3-(3-fluorobenzyl)-2,5-dimethylphenyl)-N-methylformimidamide]
≥ 70%: inhibition of growth at 300 ppm [1] | inhibition of growth at 300 ppm (Colletotrichum capsici) | inhibition of growth at 300 ppm (Pyricularia oryzae) | inhibition of growth at 300 ppm (Rhizoctonia solani) | inhibition of growth at 300 ppm (Alternaria solani) | inhibition of growth at 300 ppm (Fusarium culmorum) | inhibition of growth at 300 ppm (Botrytis cinerea)

CCN(C)C=Nc1cc(OC)cc(Cc2ccc(F)c(F)c2)c1C [Compound 286, N′-(3-(3,4-difluorobenzyl)-5-methoxy-2-methylphenyl)-N-ethyl-N-methylformimidamide]
≥ 70%: inhibition of growth at 300 ppm [1] | inhibition of growth at 300 ppm (Pyricularia oryzae) | pest or weed control at 500 ppm (Phakopsora pachyrhizi) | inhibition of growth at 300 ppm (Rhizoctonia solani) | inhibition of growth at 300 ppm (Alternaria solani) | inhibition of growth at 300 ppm (Fusarium culmorum) | inhibition of growth at 300 ppm (Botrytis cinerea)

CCN(C)C=Nc1cc(OC)cc(Cc2ccccc2Br)c1C [Compound 294, N′-(3-(2-bromobenzyl)-5-methoxy-2-methylphenyl)-N-ethyl-N-methylformimidamide]
≥ 70%: inhibition of growth at 300 ppm [1] | inhibition of growth at 300 ppm (Pyricularia oryzae) | pest or weed control at 500 ppm (Phakopsora pachyrhizi) | inhibition of growth at 300 ppm (Rhizoctonia solani) | inhibition of growth at 300 ppm (Alternaria solani) | inhibition of growth at 300 ppm (Fusarium culmorum) | inhibition of growth at 300 ppm (Botrytis cinerea)

CCN(C)C=Nc1cc(C)cc(N(C)c2cc(C)ccc2Cl)c1Cl [Compound 120, N′-(2-chloro-3-((2-chloro-5-methylphenyl)(methyl)amino)-5-methylphenyl)-N-ethyl-N-methylformimidamide]
≥ 70%: inhibition of growth at 300 ppm [1] | inhibition of growth at 300 ppm (Colletotrichum capsici) | inhibition of growth at 300 ppm (Pyricularia oryzae) | pest or weed control at 500 ppm (Phakopsora pachyrhizi) | inhibition of growth at 300 ppm (Alternaria solani) | inhibition of growth at 300 ppm (Fusarium culmorum)

CCN(C)C=Nc1cc(C)cc(Nc2ccc(C)cc2)c1Cl [Compound 1, N′-(2-chloro-5-methyl-3-(p-tolylamino)phenyl)-N-ethyl-N-methylformimidamide]
≥ 70%: inhibition of growth at 300 ppm (Colletotrichum capsici) | inhibition of growth at 300 ppm (Pyricularia oryzae) | inhibition of growth at 300 ppm (Rhizoctonia solani) | inhibition of growth at 300 ppm (Alternaria solani) | inhibition of growth at 300 ppm (Fusarium culmorum)

CCN(C)C=Nc1cc(C)cc(Cc2ccc(C#N)cc2)c1Cl [Compound 46, N′-(2-chloro-3-(4-cyanobenzyl)-5-methylphenyl)-N-ethyl-N-methylformimidamide]
≥ 70%: inhibition of growth at 300 ppm (Colletotrichum capsici) | inhibition of growth at 300 ppm (Pyricularia oryzae) | inhibition of growth at 300 ppm (Rhizoctonia solani) | inhibition of growth at 300 ppm (Alternaria solani) | inhibition of growth at 300 ppm (Fusarium culmorum) | inhibition of growth at 300 ppm (Botrytis cinerea)

CCN(C)C=Nc1cc(C)cc(Nc2ccc(F)c(OC)c2)c1Cl [Compound 275, N′-(2-chloro-3-((4-fluoro-3-methoxyphenyl)amino)-5-methylphenyl)-N-ethyl-N-methylformimidamide]
≥ 70%: inhibition of growth at 300 ppm [1] | inhibition of growth at 300 ppm (Colletotrichum capsici) | inhibition of growth at 300 ppm (Pyricularia oryzae) | pest or weed control at 500 ppm (Phakopsora pachyrhizi) | inhibition of growth at 300 ppm (Rhizoctonia solani) | inhibition of growth at 300 ppm (Alternaria solani) | inhibition of growth at 300 ppm (Fusarium culmorum)

CCN(C)C=Nc1cc(F)cc(Nc2cc(Cl)ccc2C)c1C [Compound 116, N′-(3-((5-chloro-2-methylphenyl)amino)-5-fluoro-2-methylphenyl)-N-ethyl-N-methylformimidamide]
≥ 70%: inhibition of growth at 300 ppm [1] | inhibition of growth at 300 ppm (Colletotrichum capsici) | inhibition of growth at 300 ppm (Pyricularia oryzae) | pest or weed control at 500 ppm (Phakopsora pachyrhizi) | inhibition of growth at 300 ppm (Alternaria solani) | inhibition of growth at 300 ppm (Fusarium culmorum)

CCN(C)C=Nc1cc(Cl)cc(Cc2ccc(C)cc2)c1C [Compound 105, N′-(5-chloro-2-methyl-3-(4-methylbenzyl)phenyl)-N-ethyl-N-methylformimidamide]
≥ 70%: inhibition of growth at 300 ppm (Colletotrichum capsici) | inhibition of growth at 300 ppm (Pyricularia oryzae) | pest or weed control at 500 ppm (Phakopsora pachyrhizi) | inhibition of growth at 300 ppm (Rhizoctonia solani) | inhibition of growth at 300 ppm (Alternaria solani) | inhibition of growth at 300 ppm (Fusarium culmorum) | inhibition of growth at 300 ppm (Botrytis cinerea)

CCN(C)C=Nc1cc(Cl)cc(Cc2ccccc2C)c1C [Compound 88, N′-(5-chloro-2-methyl-3-(2-methylbenzyl)phenyl)-N-ethyl-N-methylformimidamide]
≥ 70%: inhibition of growth at 300 ppm (Colletotrichum capsici) | inhibition of growth at 300 ppm (Pyricularia oryzae) | pest or weed control at 500 ppm (Phakopsora pachyrhizi) | inhibition of growth at 300 ppm (Rhizoctonia solani) | inhibition of growth at 300 ppm (Alternaria solani) | inhibition of growth at 300 ppm (Fusarium culmorum) | inhibition of growth at 300 ppm (Botrytis cinerea)

CCN(C)C=Nc1cc(C)cc(Cc2cccc(F)c2)c1SC [Compound 190, N-ethyl-N′-(3-(3-fluorobenzyl)-5-methyl-2-(methylthio)phenyl)-N-methylformimidamide]
≥ 70%: inhibition of growth at 300 ppm (Colletotrichum capsici) | inhibition of growth at 300 ppm (Pyricularia oryzae) | pest or weed control at 500 ppm (Phakopsora pachyrhizi) | inhibition of growth at 300 ppm (Rhizoctonia solani) | inhibition of growth at 300 ppm (Alternaria solani) | inhibition of growth at 300 ppm (Fusarium culmorum)

CCN(C)C=Nc1cc(F)cc(Cc2ccc(C(F)(F)F)cc2)c1C [Compound 188, N-ethyl-N′-(5-fluoro-2-methyl-3-(4-(trifluoromethyl)benzyl)phenyl)-N-methylformimidamide]
≥ 70%: inhibition of growth at 300 ppm [1] | inhibition of growth at 300 ppm (Pyricularia oryzae) | pest or weed control at 500 ppm (Phakopsora pachyrhizi) | inhibition of growth at 300 ppm (Rhizoctonia solani) | inhibition of growth at 300 ppm (Alternaria solani) | inhibition of growth at 300 ppm (Fusarium culmorum) | inhibition of growth at 300 ppm (Botrytis cinerea)

CCN(C)C=Nc1cc(C)cc(Nc2ncc(Cl)cc2C)c1Cl [Compound 112, N′-(2-chloro-3-((5-chloro-3-methylpyridin-2-yl)amino)-5-methylphenyl)-N-ethyl-N-methylformimidamide]
≥ 70%: inhibition of growth at 300 ppm [1] | inhibition of growth at 300 ppm (Colletotrichum capsici) | inhibition of growth at 300 ppm (Pyricularia oryzae) | inhibition of growth at 300 ppm (Alternaria solani) | inhibition of growth at 300 ppm (Fusarium culmorum)

CCN(C)C=Nc1cc(Cl)cc(Nc2ccc(OC)cc2)c1C [Compound 162, N′-(5-chloro-3-((4-methoxyphenyl)amino)-2-methylphenyl)-N-ethyl-N-methylformimidamide]
≥ 70%: inhibition of growth at 300 ppm [1] | inhibition of growth at 300 ppm (Colletotrichum capsici) | inhibition of growth at 300 ppm (Pyricularia oryzae) | inhibition of growth at 300 ppm (Rhizoctonia solani) | inhibition of growth at 300 ppm (Alternaria solani) | inhibition of growth at 300 ppm (Fusarium culmorum)
